According to the METLIN SMRT retention time set (Domingo-Almenara et al. 2019):

Test: gradient 5% acetonitrile 3 min, to 50% in 2 min, to 85% in 15 min, held 3 min, 100 µL/min
Conditions: column: Zorbax Extend-C18 2.1 x 50 mm; eluents: water / acetonitrile, 0.1% formic acid
Method in brief: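 Pure standards were analyzed in mixtures of ~100 molecules using HPLC coupled to a quadrupole time-of-flight mass spectrometer, in both positive and negative ionization mode. Separation used a Zorbax Extend-C18 column (2.1 × 50 mm, 1.8 μm) at 100 μL/min, with water and acetonitrile each containing 0.1% formic acid. Dead and dwell volumes were 40 μL and 900 μL, and data were collected over 3 months. Retention time was read from computationally picked adduct peaks, each inspected manually.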

Row | RP-LC retention time [s] | Structure (SMILES)
1 | 782 | Cn1c(=O)c2ccn(CC(=O)N3CCC(Cc4ccccc4)CC3)c2n(C)c1=O
2 | 1050 | CCOc1ccc(-c2ccc(=O)n(Cc3nc(-c4ccc5c(c4)OCO5)no3)n2)cc1
3 | 790 | CSc1ccc(CNC(=O)C2c3ccccc3CCN2C(C)=O)cc1 (stereo not drawn)
4 | 700 | O=C(N[C@H]1C[C@@H]2C[C@H]1CN2C(=O)c1ccc2c(c1)OCO2)c1ccccc1
5 | 702 | CCCNc1cc(N2CCC(CCC(=O)NCc3ccccc3C)CC2)ncn1
6 | 678 | Cc1ccc(-c2ccc(=O)n(CCCC(=O)Nc3ccc(-c4ccc(=O)[nH]n4)cc3)n2)cc1
7 | 1020 | COc1ccccc1-c1nc(-c2cccc(-c3ccnn3C)c2)no1
8 | 786 | Cn1c(=O)c(SCC(=O)NCc2ccccc2Cl)nc2cccnc21
9 | 641 | Cn1ccc2cc(S(=O)(=O)N3CCC(C(=O)NCc4ccccn4)CC3)ccc21
10 | 829 | CCc1cc(=O)n(CC(=O)Nc2ccc(Br)cc2)c(N2CCOCC2)n1
11 | 1410 | COc1ccc(NC(=O)Cn2nc3c4sc(N(C)C)nc4ncn3c2=O)cc1
12 | 674 | O=C(Cn1ccnc1-c1ccnc(N2CCSCC2)c1)NCc1ccc(Cl)cc1
13 | 787 | CCc1ccc(CNC(=O)C2CCCN(c3ncnc4nn(-c5ccc(C)cc5)cc34)C2)cc1 (stereo not drawn)
14 | 587 | CC(=O)N1CCc2ccccc2C1C(=O)N1CCN(c2ccccn2)CC1 (stereo not drawn)
15 | 718 | O=C(CCc1c(-c2cccc(Cl)c2)nc2ccccn12)N1CCN(c2ccccc2)CC1
16 | 990 | Cc1cc(C)cc(S(=O)(=O)N2CCC(C(=O)NCc3csc(-c4ccccc4)n3)CC2)c1
17 | 763 | COc1ccc(NC(=O)CCOc2ccccc2)cc1
18 | 790 | O=C(CS(=O)(=O)Cc1ccccc1)Nc1nc2cc3c(cc2s1)OCO3
19 | 698 | CCOc1ccc(NC(=O)Cn2cnc3nc(N4CCCC(C(=O)NC(C)C)C4)sc3c2=O)cc1 (stereo not drawn)
20 | 725 | CN(C)C(=O)[C@@]12CCCC[C@H]1N(CCc1ccccc1)C(=O)CC2
21 | 615 | O=C(COc1ccccc1)N1CCN(c2nc(CN3CCOCC3)cs2)CC1
22 | 667 | O=C(NCC(O)c1ccsc1)C1(c2ccccc2)CCOCC1 (stereo not drawn)
23 | 795 | O=C(CN1CCC(c2nc(-c3ccccc3)no2)CC1)Nc1ccccc1Br
24 | 759 | CCc1nnsc1C(=O)Nc1ccc(S(=O)(=O)Nc2onc(C)c2C)cc1
25 | 778 | Cc1nnc(-c2ccc3ccn(CC(=O)Nc4ccccc4)c3c2)o1

Row | RP-LC retention time [s] | Structure (SMILES)
26 | 940 | COc1ccc(Cl)cc1NC(=O)CCc1c(C)nn(-c2cc(N(C)C)ncn2)c1C
27 | 1020 | COc1ccc(CNC(=O)c2nnc(-c3ccc(S(=O)(=O)N4CCC(C)CC4)cc3)o2)cc1
28 | 903 | COc1ccc(OC)c(NS(=O)(=O)c2cc(-c3nc(C)cs3)n(CC(=O)N3CCCC3)c2)c1
29 | 942 | Cc1noc(-c2cc(=O)n(CC(=O)Nc3cc(Cl)ccc3C)c3ccccc23)n1
30 | 1090 | CCNS(=O)(=O)c1cccnc1Nc1ccc(Cl)c(F)c1
31 | 1350 | COC(=O)c1cnc(N2CCN(c3cccc(Cl)c3)CC2)c2ccccc12
32 | 848 | Cc1cc(C)n(CC(O)COc2ccc(C(=O)c3ccc(Cl)cc3)cc2)n1 (stereo not drawn)
33 | 688 | CCCC(NC(=O)c1ccccc1)C(=O)Nc1nc2ccccc2[nH]1 (stereo not drawn)
34 | 806 | Cc1ccccc1CC(=O)Nc1ccc2c(c1)Sc1ncccc1C(=O)N2C
35 | 876 | CCc1noc(NC(C)=O)c1-c1ccc(OC)c(S(=O)(=O)Nc2cc(Cl)ccc2OC)c1
36 | 844 | CCOc1ccc(NC(=O)N2CCC(n3cnc4ccc(Cl)cc4c3=O)CC2)cc1
37 | 1340 | CCOc1ccc(-c2csc(Cc3nc(-c4cccc(Cl)c4)no3)n2)cc1
38 | 1210 | O=C(CCCOc1ccc(Cl)cc1Cl)Nc1nc(-c2ccccc2)cs1
39 | 1280 | COc1ccc(NC(=O)c2c(O)c3cccnc3n(-c3cccc(F)c3)c2=O)cc1Cl
40 | 1130 | COc1ccc(-c2nc(CN(c3ccccc3)S(=O)(=O)c3cccs3)c(C)o2)cc1
41 | 726 | CCCC(=O)Nc1ccc2c(c1)CN(C(=O)c1cc(F)ccc1Cl)C(C(=O)N(C)C)C2 (stereo not drawn)
42 | 1280 | Clc1cccc(-c2noc(Cc3nc(-c4ccccc4)cs3)n2)c1
43 | 665 | CCn1cc(CCNC(=O)Nc2cccc(C(C)=O)c2)c2cccnc21
44 | 797 | Nc1sc(SCC(=O)Nc2ccc3c(c2)OCO3)nc1-c1ccccc1
45 | 672 | O=C(CN1CCC(c2nc(-c3cccs3)no2)CC1)NCc1ccccc1
46 | 840 | COc1cccc(-c2nnc(SCc3cc(=O)n4c(C)csc4n3)o2)c1
47 | 935 | CS(=O)(=O)N1CCC(C(=O)Nc2ccccc2Cl)Oc2ccccc21 (stereo not drawn)
48 | 804 | COc1ccc(C2C(C(=O)NCCC(C)C)c3cc(OC)c(OC)cc3C(=O)N2C)cc1 (stereo not drawn)
49 | 728 | Cc1cc(C)n2c(Nc3ccccc3C)c(-c3ccccc3)nc2n1

The next lines start with the molecule.

Row | Structure (SMILES) | RP-LC retention time [s]
50 | CCc1nccn1Cc1nc(-c2cccc(Br)c2)no1 | 685
51 | O=C(Nc1cnn(-c2ncc(N3CCCCC3)cn2)c1)NC1CCCC1 | 754
52 | CCn1nc(C)c2ccn(CC(=O)NCc3cc(F)cc(F)c3)c(=O)c21 | 757
53 | O=C(c1ccc2c(c1)OCO2)N1CCN(c2nnc3ccccn23)CC1 | 616
54 | COCCN1CCn2cc(S(=O)(=O)Nc3ccc(Cl)cc3F)cc2C1=O | 734
55 | Cc1cccc(C)c1NC(=O)C1CCN(S(=O)(=O)c2ccc3c(c2)NC(=O)CO3)CC1 | 813
56 | Cc1cc(S(=O)(=O)NCC2CCN(C(=O)NC(C)(C)C)CC2)c(Cl)cc1Cl | 927
57 | COc1ccc(Br)cc1CNC(=O)C1CCCN(C(=O)c2[nH]c(C)cc2C)C1 (stereo not drawn) | 808
58 | CC(C)c1csc(-c2csc(S(=O)(=O)NCc3ccc(F)cc3)c2)n1 | 1120
59 | CCc1nc2cc(-c3noc(-c4n[nH]c5c4CCCC5)n3)ccc2o1 | 1000
60 | Cc1cccc(OCC(=O)N2CCCC(c3n[nH]c(C4CC4)n3)C2)c1 (stereo not drawn) | 687
61 | Cc1ccc(CNC(=O)c2nnc(-c3ccc(S(=O)(=O)N4CCCC4)cc3)o2)o1 | 852
62 | Cc1ccc(-c2ccc3nn(CC(=O)NC4CCCCC4)c(=O)n3n2)cc1C | 792
63 | COCCNC(=O)C1CCc2sc(C(=O)N3CCCCCC3)cc2C1 (stereo not drawn) | 682
64 | CN1CCN(C(CNC(=O)c2ccc3c(c2)OCO3)c2ccc3c(c2)OCO3)CC1 (stereo not drawn) | 614
65 | Cc1ccc(Cl)cc1NC(=O)C1CCN(S(=O)(=O)c2cc(C(=O)N(C)C)cs2)CC1 | 846
66 | CC(C)NC(=O)N1CCCC(c2cccc(C(=O)NCCN3CCCCC3)c2)C1 (stereo not drawn) | 608
67 | Cn1ccc(CN2CCN(Cc3cccc(F)c3)CC2)cc1=O | 558
68 | CCCCn1cc(S(=O)(=O)Nc2ccc(C)cc2F)c2cccnc21 | 980
69 | Cc1csc(-c2cc(S(=O)(=O)N3CCC(C)CC3)cn2CC(=O)N2CCCCC2)n1 | 1130

Row | Structure (SMILES) | RP-LC retention time [s]
70 | CCCn1ncc(N2CCC(C(=O)N3CCN(C(C)=O)CC3)CC2)cc1=O | 591
71 | CC(=O)Nc1nc(-c2ccc(S(=O)(=O)N3CCOCC3)cc2)cs1 | 735
72 | Cc1ccc(C)c(NC(=O)N2CCN(CCn3c(C(C)C)nc4cccnc43)CC2)c1 | 621
73 | CCNC(=O)C1CCc2sc(C(=O)N(C)C)cc2C1 (stereo not drawn) | 617
74 | CC1Cc2ccccc2N1C(=O)CCC(=O)N1CCCN(c2cc(=O)n(C)c(=O)n2C)CC1 (stereo not drawn) | 677
75 | Cc1[nH]c(C(=O)N2CCCC(C(=O)NCc3ccc(N(C)C)cc3)C2)c(C)c1C(=O)OC(C)C (stereo not drawn) | 681
76 | COc1cc(NS(=O)(=O)c2cc3n(c2)CCCN(C)C3=O)cc(OC)c1 | 672
77 | CCOC(=O)C1=C(C)NC2=C(C(=O)C(C(=O)OC)C(C)C2)C1c1ccccc1Cl (stereo not drawn) | 965
78 | Cc1cc(N2CCC(C)CC2)n2nc(-c3ccc(Cl)cc3)nc2n1 | 1170
79 | O=C(CN1CCN(Cc2ccc(F)cc2)C1=O)NCc1ccc(N2CCOCC2)cc1 | 712
80 | Fc1cccc(-c2noc(-c3ccc(N4CCN(c5ccccn5)CC4)nc3)n2)c1 | 799
81 | CCc1nccn1Cc1nc(-c2cc(OC)c(OC)c(OC)c2)no1 | 621
82 | COc1ccc(CC(=O)N2CCC3(C2)C(=O)Nc2ccc(OC)cc23)cc1 (stereo not drawn) | 709
83 | O=C(c1cc(C2CC2)[nH]n1)N1CCN(c2ccc(Cl)cc2)CC1 | 837
84 | CCN1CCN(CCNC(=O)c2csc(-c3ccc(N4CCCC4)nc3)n2)CC1 | 550
85 | O=C(NCc1cccs1)C1CCN(S(=O)(=O)c2cc(-c3noc(C4CCC4)n3)cs2)CC1 | 1000
86 | CCc1nc(-c2ccc(-c3noc(CN4C(=O)COc5ccc(Cl)cc54)n3)cc2)cs1 | 1270
87 | Cc1[nH]nc(-c2cc(S(=O)(=O)NCC(C)c3ccccc3)c(C)s2)c1C (stereo not drawn) | 936
88 | Cc1ccccc1C1CCCN1C(=O)c1c(Cl)cnn1C (stereo not drawn) | 892
